The source of these data is US7625945B2, “Andrographolide and analogues as inhibitors of TNFα and IL-1β expression” (Hutchison MediPharma Enterprises Ltd., priority 2004, dated 2009).

The structures appear in SMILES notation.

The test relates to DNBS-induced colitis. In words: In vivo assay: DNBS-induced distal colitis in rats. Set-up: species or system Male Wistar rats. As to conditions: DNBS-treated rats, 10 mg/kg i.p. The method, then:
Male Wistar rats (170-190 g, provided by Chinese academy of science animal center, Shanghai) were housed (7˜8 rats per cage) in a controlled environment and fed with standard rodent chow and water. Distal colitis was induced to the rats according to the procedure described in Hogaboam C. M., European Journal of Pharmacology, 1996, 309: 261-269. Briefly, the rats were anaesthetized with 1% pentobarbital sodium. 2,4-Dinitrobenzene sulfonic acid (DNBS) in 0.25 ml of 30% ethanol (v/v) was introduced into the colon (8 cm proximal to the anus) via a PE 50 cannula. In the control group (blank-control), 30% ethanol (v/v), in stead of DNBS in ethanol, was introduced. Andrographolide (10 mg/kg, i.p.) was administered to a group of DNBS-treated rats 24 hours and 2 hours prior to the colitis induction and once daily thereafter for 5 days. The rats were weighed daily. All rats were sacrificed 6 days after the colitis induction, and colon, spleen, and thymus were removed and weighed. The colon weight/body weight ratio, spleen weight/body weight ratio, and thymus weight/body weight ratio were calculated. Samples of colon tissues located precisely 2 cm above the anal canal were obtained, fixed in 10% neutral-buffered formalin, embedded in paraffin, sectioned, and stained with hematoxylin/eosin. The samples were examined under microscope to determine severity of the lesions.

As for `C=C1CC[C@@H]2[C@](C)(CO)[C@H](O)CC[C@@]2(C)[C@@H]1C/C=C1/C(=O)OC[C@H]1O` [andrographolide], the “overall effect on DNBS-induced colitis” value is recorded as “effectively alleviated or even cured”. Further, where the note is “colon sections hematoxylin/eosin, 6 days after induction”, the “microscopic examination of colon: severity of inflammation” value is given as “much less severe inflammation”. Moreover, for the setting “treatment for 6 days”, the “colon weight/body weight ratio” value is “decreased” and the “wasting syndrome (weight loss, diarrhea)” value is reported as “alleviated wasting syndrome”.
